Source: US20250215029A1 (Recludix Pharma, Inc., priority 2022, published 2025)
Where two headings read alike, the source gives them in different places.

Columns and labels:
[1] = target: T1, Recombinant STAT6 protein (STAT6 (W123-T658)) (Homo sapiens, UniProt P42226); test: STAT6 Fluorescence Polarization (FP) Assay; assay type: binding; settings: 45-minute incubation
T1 construct: Recombinant STAT6 protein (STAT6 (W123-T658))
T1 sequence (P42226 123-658): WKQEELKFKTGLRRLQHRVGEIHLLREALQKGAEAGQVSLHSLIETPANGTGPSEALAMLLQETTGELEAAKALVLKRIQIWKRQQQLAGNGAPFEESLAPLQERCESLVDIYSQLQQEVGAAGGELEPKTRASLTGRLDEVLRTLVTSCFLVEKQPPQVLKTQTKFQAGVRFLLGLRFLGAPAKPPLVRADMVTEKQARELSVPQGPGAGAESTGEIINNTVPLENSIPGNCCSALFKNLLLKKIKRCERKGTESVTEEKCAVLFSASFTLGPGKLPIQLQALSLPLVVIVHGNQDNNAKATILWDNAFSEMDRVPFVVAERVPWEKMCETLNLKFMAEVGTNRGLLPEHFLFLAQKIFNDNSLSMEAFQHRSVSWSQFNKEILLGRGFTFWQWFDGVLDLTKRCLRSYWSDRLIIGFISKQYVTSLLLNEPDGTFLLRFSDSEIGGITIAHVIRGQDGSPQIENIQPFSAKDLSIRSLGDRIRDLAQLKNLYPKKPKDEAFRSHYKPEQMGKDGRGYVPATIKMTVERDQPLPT
Outline: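 Protein-probe mix (250 nM STAT6 W123-T658, 2 nM 5-FAM-pTyr peptide) in 10 mM HEPES pH 7.4, 50 mM NaCl, 1 mM EDTA, 0.05% Tween 20, 2 mM DTT; added to compound dilution series, 1% DMSO final; 45 min RT; FP read; IC50 via nonlinear regression.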

[2] = target: T2, Recombinant STAT3 protein (STAT3 (G127-I722)) (Homo sapiens, UniProt P40763); test: STAT3 Fluorescence Polarization (FP) Assay; assay type: binding; settings: probe 5-FAM-GpYLPQTV-NH2 2 nM, 45-minute incubation
T2 construct: Recombinant STAT3 protein (STAT3 (G127-I722))
T2 sequence (P40763 127-722): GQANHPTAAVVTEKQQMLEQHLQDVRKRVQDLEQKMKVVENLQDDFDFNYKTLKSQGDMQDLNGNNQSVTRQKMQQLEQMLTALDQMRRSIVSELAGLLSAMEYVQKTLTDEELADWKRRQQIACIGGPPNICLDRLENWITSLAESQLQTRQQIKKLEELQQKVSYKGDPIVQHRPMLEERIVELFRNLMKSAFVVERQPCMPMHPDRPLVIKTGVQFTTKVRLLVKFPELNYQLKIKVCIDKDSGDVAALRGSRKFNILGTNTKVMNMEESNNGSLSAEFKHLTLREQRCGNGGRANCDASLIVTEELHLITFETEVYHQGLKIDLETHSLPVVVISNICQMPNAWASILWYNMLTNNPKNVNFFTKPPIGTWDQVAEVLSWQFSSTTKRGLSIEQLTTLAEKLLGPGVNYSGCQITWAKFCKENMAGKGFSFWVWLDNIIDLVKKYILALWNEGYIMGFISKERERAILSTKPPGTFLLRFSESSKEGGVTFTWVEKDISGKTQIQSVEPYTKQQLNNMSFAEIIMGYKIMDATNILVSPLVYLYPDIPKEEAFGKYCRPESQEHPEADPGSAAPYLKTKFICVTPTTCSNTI
Outline: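 Displacement of a 2 nM 5-FAM-labelled pY peptide (GpYLPQTV) from 25 nM recombinant STAT3 (G127-I722) was monitored by fluorescence polarization. Incubation lasted 45 min at room temperature in pH 7.4 HEPES buffer containing 1% DMSO.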

[3] = STAT6 250 nM, probe 5-FAM-Ap[…]-NH2 2 nM, read-out: STAT6 (FP assay IC50)
[4] = STAT3 25 nM, read-out: STAT3 (FP assay IC50)
[5] = STAT6 (W123-T658) 250 nM, probe 5-FAM-Ap[…]-NH2 2 nM, read-out: STAT6 (FP assay IC50 class)
[6] = STAT3 (G127-I722) 25 nM, read-out: STAT3 (FP assay IC50 class)

IC50 [1, 3]	IC50 [2, 4]	IC50 [1, 5]	IC50 [2, 6]	Molecule	IC50 ([1]; STAT6 (W123-T658) 250 nM, probe 5-FAM-ApYKPFQDLI-NH2 2 nM, read-out: STAT6 (FP assay IC50 class))
3000 to 30000 nM	100 to 1000 nM	–	–	N=S1(=O)CC2(CN(C(=O)[C@@H]3CC[C@@H]4CCCC[C@H](NC(=O)c5cc6cc(C(F)(F)P(=O)(O)O)ccc6s5)C(=O)N43)C2)C1 [Compound 70, (difluoro(2-(((3S,6S,10aS)-3-(2-imino-2-oxido-2l6-thia-6-azaspiro[3.3]heptane-6-carbonyl)-5-oxodecahydropyrrolo [1,2-a]azocin-6-yl)carbamoyl)benzo[b]thiophen-5-yl)methyl) phosphonic acid]	–
–	–	3000 to 30000 nM	< 100 nM	CS(=O)(=O)CC1CN(C(=O)[C@@H]2CC[C@@H]3CCC[C@H](NC(=O)c4cc5cc(C(F)(F)P(=O)(O)O)ccc5s4)C(=O)N32)C1 [Compound 790, (difluoro(2-(((3S,6S,9aS)-3-(3-((methylsulfonyl)methyl)azetidine-1-carbonyl)-5-oxooctahydro-1H-pyrrolo[1,2-a]azepin-6-yl)carbamoyl)benzo [b]thiophen-5-yl)methyl) phosphonic acid]	–
300 to 3000 nM	100 to 1000 nM	–	–	O=C(N[C@H]1CCCC[C@H]2CC[C@@H](C(=O)N3CC4(CC(C5CC5)=NO4)C3)N2C1=O)c1cc2cc(C(F)(F)P(=O)(O)O)ccc2s1 [Compound 72, ((2-(((3S,6S,10aS)-3-(7-cyclopropyl-5-oxa-2,6-diazaspiro[3.4]oct-6-ene-2-carbonyl)-5-oxodecahydropyrrolo [1,2-a]azocin-6-yl)carbamoyl)benzo[b]thiophen-5-yl)difluoromethyl) phosphonic acid]	–
300 to 3000 nM	1000 to 10000 nM	–	–	COc1ccc(N(C)C(=O)[C@@H]2CC[C@@H]3CCCC[C@H](NC(=O)c4cc5cc(C(F)(F)P(=O)(O)O)ccc5s4)C(=O)N32)cn1 [Compound 44, (difluoro(2-(((3S,6S,10aS)-3-((6-methoxypyridin-3-yl)(methyl)carbamoyl)-5-oxodecahydro-pyrrolo[1,2-a]azocin-6-yl)carbamoyl)benzo[b]thiophen-5-yl)methyl) phosphonic acid]	–
≤ 300 nM	100 to 1000 nM	–	–	N#C[C@@H]1CN(C(=O)[C@@H]2CCC[C@@H]3CCCC[C@H](NC(=O)c4cc5cc(C(F)(F)P(=O)(O)O)ccc5s4)C(=O)N32)CC1c1ccccc1 (mixture of isomers) [Compound 63, ((2-(((4S,7S,11aS)-4-(rel-(trans)-3-cyano-4-phenylpyrrolidine-1-carbonyl)-6-oxodecahydro-2H-pyrido[1,2-a]azocin-7-yl)carbamoyl)benzo[b]thiophen-5-yl)difluoromethyl) phosphonic acid]	–
–	–	300 to 3000 nM	100 to 1000 nM	O=C(N[C@H]1CCCC[C@H]2CC[C@@H](C(=O)NCc3cnc4[nH]ccc4c3)N2C1=O)c1cc2cc(C(F)(F)P(=O)(O)O)ccc2s1 [Compound 1114, ((2-(((3S,6S,10aS)-3-(((1H-pyrrolo[2,3-b]pyridin-5-yl)methyl)carbamoyl)-5-oxodecahydropyrrolo[1,2-a]azocin-6-yl)carbamoyl)benzo[b]thiophen-5-yl)difluoromethyl)phosphonic acid]	–
–	–	300 to 3000 nM	< 100 nM	N#CC1(c2ccccn2)CN(C(=O)[C@@H]2CC[C@@H]3CCC[C@H](NC(=O)c4cc5cc(C(F)(F)P(=O)(O)O)ccc5s4)C(=O)N32)C1 [Compound 776, ((2-(((3S,6S,9aS)-3-(3-cyano-3-(pyridin-2-yl)azetidine-1-carbonyl)-5-oxooctahydro-1H-pyrrolo[1,2-a]azepin-6-yl)carbamoyl)benzo [b]thiophen-5-yl)difluoromethyl) phosphonic acid]	–

Continued, molecule first:

Molecule	IC50 [1, 3]	IC50 [2, 4]	IC50 [1, 5]	IC50 [2, 6]	IC50 ([1]; STAT6 (W123-T658) 250 nM, probe 5-FAM-ApYKPFQDLI-NH2 2 nM, read-out: STAT6 (FP assay IC50 class))
CN1CCN(C(=O)[C@@H]2CC[C@@H]3CCC[C@H](NC(=O)c4cc5cc(C(F)P(=O)(O)O)ccc5s4)C(=O)N32)c2ccccc21 (stereo partly drawn) [Compound 763, (fluoro(2-(((3S,6S,9aS)-3-(4-methyl-1,2,3,4-tetrahydro-quinoxaline-1-carbonyl)-5-oxooctahydro-1H-pyrrolo[1,2-a]azepin-6-yl)carbamoyl)benzo [b]thiophen-5-yl)methyl) phosphonic acid]	–	–	3000 to 30000 nM	1000 to 10000 nM	–
(difluoro(2- (((3S,6S,10aS)-5- oxo-3-((1R,5S,6R)- 6-phenyl-3- azabicyclo[3.1.0] hexane-3- carbonyl)decahydro pyrrolo[1,2- a]azocin-6- yl)carbamoyl)benzo [b]thiophen-5- yl)methyl) phosphonic acid [Compound 805]	–	–	–	100 to 1000 nM	3000 to 30000 nM
COC[C@@H]1CCN1c1ncncc1C1CN(C(=O)[C@@H]2CC[C@@H]3CCC[C@H](NC(=O)c4cc5cc([C@@H](F)P(=O)(O)O)ccc5s4)C(=O)N32)C1 (single isomer, unassigned) [Compound 669]	–	–	3000 to 30000 nM	< 100 nM	–
O=C(N[C@H]1CCCC[C@H]2CC[C@@H](C(=O)N3C[C@H](c4cccnc4)CC34CC4)N2C1=O)c1cc2cc([C@@H](F)P(=O)(O)O)ccc2s1 (single isomer, unassigned) [Compound 909]	–	–	≤ 300 nM	1000 to 10000 nM	–
C[C@]1(NC(=O)c2cc3cc(C(F)(F)P(=O)(O)O)ccc3s2)CCCC[C@H]2CC[C@@H](C(=O)N3CC(c4ccccn4)C3)N2C1=O [Compound 85, (difluoro(2-(((3S,6S,10aS)-6-methyl-5-oxo-3-(3-(pyridin-2-yl)azetidine-1-carbonyl)decahydropyrrolo [1,2-a]azocin-6-yl)carbamoyl)benzo[b]thiophen-5-yl)methyl) phosphonic acid]	3000 to 30000 nM	< 100 nM	–	–	–
O=C(N[C@H]1CCC[C@H]2CC[C@@H](C(=O)N3CC(c4cnccc4F)C3)N2C1=O)c1cc2cc(CP(=O)(O)O)ccc2s1 [Compound 514, ((2-(((3S,6S,9aS)-3-(3-(4-fluoropyridin-3-yl)azetidine-1-carbonyl)-5-oxooctahydro-1H-pyrrolo[1,2-a]azepin-6-yl)carbamoyl)benzo[b]thiophen-5-yl)methyl)phosphonic acid]	–	–	3000 to 30000 nM	< 100 nM	–
O=C(N[C@H]1CCC[C@H]2CC[C@@H](C(=O)N3CC(c4ccnc(O)c4)C3)N2C1=O)c1cc2cc(C(F)P(=O)(O)O)ccc2s1 (stereo partly drawn) [Compound 619, (fluoro(2-(((3S,6S,9aS)-3-(3-(2-hydroxypyridin-4-yl)azetidine-1-carbonyl)-5-oxooctahydro-1H-pyrrolo[1,2-a]azepin-6-yl)carbamoyl)benzo [b]thiophen-5-yl)methyl) phosphonic acid]	–	–	3000 to 30000 nM	100 to 1000 nM	–
O=C(N[C@H]1CCCCC[C@H]2CC[C@@H](C(=O)N3CC(C(=O)N4CCOCC4)C3)N2C1=O)c1cc2cc(C(F)(F)P(=O)(O)O)ccc2s1 [Compound 773, (difluoro(2-(((3S,6S,11aS)-3-(3-(morpholine-4-carbonyl)azetidine-1-carbonyl)-5-oxodecahydro-1H-pyrrolo[1,2-a]azonin-6-yl)carbamoyl)benzo [b]thiophen-5-yl)methyl) phosphonic acid]	–	–	> 30000 nM	100 to 1000 nM	–
COc1cncc([C@H]2CN(C(=O)[C@@H]3CC[C@@H]4CCCC[C@H](NC(=O)c5cc6cc([C@H](F)P(=O)(O)O)ccc6s5)C(=O)N43)C3(CC3)[C@@H]2C#N)c1 (single isomer, unassigned) [Compound 848]	–	–	300 to 3000 nM	1000 to 10000 nM	–
